Reference: patent US10307426B2, “Therapeutic compounds and compositions, and methods of use thereof” (Genentech, Inc., priority 2018, dated 2019)
Where two headings read alike, the source gives them in different places.

How the values were obtained:
[1] = molecular target: isolated recombinant JAK1 kinase domain (Homo sapiens (Human), UniProt P23458); assay: JAK1 enzyme assay (Caliper LabChip, peptide phosphorylation, Ki); format: biochemical; settings: 1.5 nM JAK1, ATP 25 μM, Morrison tight binding model
Experimental: (§1) The activity of the isolated recombinant JAK1 and JAK2 kinase domain was measured by monitoring phosphorylation of a peptide derived from JAK3 (Val-Ala-Leu-Val-Asp-Gly-Tyr-Phe-Arg-Leu-Thr-Thr, fluorescently labeled on the N-terminus with 5-carboxyfluorescein) using the Caliper LabChip® technology (Caliper Life Sciences, Hopkinton, Mass.). […] Reactions were incubated at 22° C. in 384-well polypropylene microtiter plates for 30 minutes and then stopped by addition of 25 μL of an EDTA containing solution (100 mM HEPES buffer (pH 7.2), 0.015% Brij-35, 150 mM EDTA), resulting in a final EDTA concentration of 50 mM. After termination of the kinase reaction, the proportion of phosphorylated product was determined as a fraction of total peptide substrate using the Caliper LabChip® 3000 according to the manufacturer's specifications. Ki values were then determined using the Morrison tight binding model (Morrison, J. F., Biochim. Biophys. Acta. 185:269-296 (1969); William, J. W. and Morrison, J. F., Meth. Enzymol., 63:437-467 (1979)) modified for ATP-competitive inhibition [Ki=Ki,app/(1+[ATP]/Km,app)].

[2] = test system: JAK1-dependent STAT6 phosphorylation downstream of IL-13 stimulation in BEAS-2B human bronchial epithelial cells; assay: JAK1 pathway assay in cell lines: IL-13 stimulated STAT6 phosphorylation in BEAS-2B cells (MSD); format: cell-based; settings: 1 hr compound incubation, IL-13 stimulation 15 min, read-out: IL-13 p-STAT6 BEAS-2B IC50
Experimental: Inhibitor potency (EC50) was determined in cell-based assays designed to measure JAK1 dependent STAT phosphorylation. As noted above, inhibition of IL-4, IL-13, and IL-9 signaling by blocking the Jak/Stat signaling pathway can alleviate asthmatic symptoms in pre-clinical lung inflammation models (Mathew et al., 2001, J Exp Med 193(9): 1087-1096; Kudlacz et. al., 2008, Eur J. Pharmacol 582(1-3): 154-161).
In one assay approach, TF-1 human erythroleukemia cells obtained from the American Type Culture Collection (ATCC; Manassas, Va.) were used to measure JAK1-dependent STAT6 phosphorylation downstream of IL-13 stimulation. Prior to use in the assays, TF-1 cells were starved of GM-CSF overnight in OptiMEM medium (Life Technologies, Grand Island, N.Y.) supplemented with 0.5% charcoal/dextran stripped fetal bovine serum (FBS), 0.1 mM non-essential amino acids (NEAA), and 1 mM sodium pyruvate. The assays were run in 384-well plates in serum-free OptiMEM medium using 300,000 cells per well. In a second assay approach, BEAS-2B human bronchial epithelial cells obtained from ATCC were plated at 100,000 cells per well of a 96-well plate one day prior to the experiment. The BEAS-2B assay was run in complete growth medium (bronchial epithelial basal medium plus bulletkit; Lonza; Basel, Switzerland).
Test compounds were serially diluted 1:2 in DMSO and then diluted 1:50 in medium just before use. Diluted compounds were added to the cells, for a final DMSO concentration of 0.2%, and incubated for 30 min (for the TF-1 assay) or 1 hr (for the BEAS-2B assay) at 37° C. Then, cells were stimulated with human recombinant cytokine at their respective EC90 concentrations, as previously determined for each individual lot. Cells were stimulated with IL-13 (R&D Systems, Minneapolis, Minn.) for 15 min at 37° C. The TF-1 cell reactions were stopped by the direct addition of 10× lysis buffer (Cell Signaling Technologies, Danvers, Mass.), whereas the BEAS-2B cell incubations were halted by the removal of medium and addition of 1× lysis buffer. The resultant samples were frozen in the plates at −80° C. Compound mediated inhibition of STAT6 phosphorylation was measured in the cell lysates using MesoScale Discovery (MSD) technology (Gaithersburg, Md.). EC50 values were determined as the concentration of compound required for 50% inhibition of STAT phosphorylation relative to that measured for the DMSO control.

[3] = molecular target: isolated recombinant JAK2 kinase domain (Homo sapiens (Human), UniProt O60674); assay: JAK2 enzyme assay (Caliper LabChip, peptide phosphorylation, Ki); format: biochemical; settings: 0.2 nM JAK2, ATP 25 μM, Morrison tight binding model
Experimental: as §1

Sequence of isolated recombinant JAK1 kinase domain (P23458 875-1153): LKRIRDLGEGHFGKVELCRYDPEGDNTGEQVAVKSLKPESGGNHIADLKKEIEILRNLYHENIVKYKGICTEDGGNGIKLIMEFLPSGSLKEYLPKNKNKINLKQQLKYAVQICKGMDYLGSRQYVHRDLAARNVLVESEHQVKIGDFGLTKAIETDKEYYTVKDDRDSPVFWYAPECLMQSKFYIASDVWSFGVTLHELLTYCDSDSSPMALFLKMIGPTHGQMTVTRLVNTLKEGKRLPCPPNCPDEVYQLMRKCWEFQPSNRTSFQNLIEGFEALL
Sequence of isolated recombinant JAK2 kinase domain (O60674 849-1124): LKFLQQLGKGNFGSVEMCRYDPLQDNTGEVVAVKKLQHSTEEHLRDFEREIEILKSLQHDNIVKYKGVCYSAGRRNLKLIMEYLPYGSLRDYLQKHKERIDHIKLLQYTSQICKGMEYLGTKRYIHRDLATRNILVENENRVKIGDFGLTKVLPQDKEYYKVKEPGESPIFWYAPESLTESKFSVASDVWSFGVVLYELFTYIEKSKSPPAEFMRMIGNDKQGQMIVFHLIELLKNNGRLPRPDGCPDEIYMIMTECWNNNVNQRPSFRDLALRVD

SMILES	Ki [1]	IC50 [2]	Ki [3]	IC50 ([2]; Homo sapiens, BEAS-2B)
CN(C)C(=O)Cn1cc(NC(=O)c2cnn3cccnc23)c(-c2cc(C(F)CF)ccc2OC(F)F)n1 (single isomer, unassigned) [Example 4]	5.84 nM	83.8 nM	3.26 nM	–
CN(C)C(=O)Cn1cc(NC(=O)c2cnn3cccnc23)c(-c2cc(C(F)CF)ccc2OC(F)F)n1 (single isomer, unassigned) [Example 5]	0.17 nM	6.7 nM	0.38 nM	–
CC(C(=O)N(C)C)n1cc(NC(=O)c2cnn3cccnc23)c(-c2cc(Cl)ccc2OC(F)F)n1 (single isomer, unassigned) [Example 10]	0.41 nM	16.6 nM	0.83 nM	–
CC(C(=O)N(C)C)n1cc(NC(=O)c2cnn3cccnc23)c(-c2cc(Cl)ccc2OC(F)F)n1 (single isomer, unassigned) [Example 11]	0.58 nM	41.8 nM	1.26 nM	–
CN(C)C(=O)Cn1cc(NC(=O)c2cnn3cccnc23)c(-c2cc([C@@H]3C[C@H]3C#N)ccc2OC(F)F)n1 [Example 1, N-(3-(5-((1R,2R)-2-cyanocyclopropyl)-2-(difluoromethoxy)phenyl)-1-(2-(dimethylamino)-2-oxoethyl)-1H-pyrazol-4-yl)pyrazolo[1,5-a]pyrimidine-3-carboxamide]	0.25 nM	–	0.61 nM	9.9 nM
CN(C)C(=O)Cn1cc(NC(=O)c2cnn3cccnc23)c(-c2cc(I)ccc2OC(F)F)n1 [Example 2, N-[3-[2-(difluoromethoxy)-5-iodophenyl]-1-[(dimethylcarbamoyl)methyl]-1H-pyrazol-4-yl]pyrazolo[1,5-a]pyrimidine-3-carboxamide]	0.25 nM	–	0.17 nM	6 nM
CN(C)C(=O)Cn1cc(NC(=O)c2c(N)nn3cccnc23)c(-c2cc(Cl)ccc2OC(F)F)n1 [Example 3, 2-amino-N-(3-(5-chloro-2-(difluoromethoxy)phenyl)-1-(2-(dimethylamino)-2-oxoethyl)-1H-pyrazol-4-yl)pyrazolo[1,5-a]pyrimidine-3-carboxamide]	0.34 nM	–	0.77 nM	10.3 nM
CN(C)C(=O)Cn1cc(NC(=O)c2cnn3cccnc23)c(-c2cc(C(F)F)ccc2OC(F)F)n1 [Example 6, N-(3-(2-(difluoromethoxy)-5-(difluoromethyl)phenyl)-1-(2(dimethylamino)-2-oxoethyl)-1H-pyrazol-4-yl)pyrazolo[1,5-a]pyrimidine-3-carboxamide]	0.15 nM	–	0.25 nM	9.9 nM
CN(C)C(=O)Cn1cc(NC(=O)c2cnn3cccnc23)c(-c2cc(CC(F)F)ccc2OC(F)F)n1 [Example 7, N-(3-(5-(2,2-difluoroethyl)-2-(difluoromethoxy)phenyl)-1-(2-(dimethylamino)-2-oxoethyl)-1H-pyrazol-4-yl)pyrazolo[1,5-a]pyrimidine-3-carboxamide]	0.52 nM	–	1.15 nM	28.9 nM
CN(C)C(=O)Cn1cc(NC(=O)c2cnn3cccnc23)c(-c2cc(Oc3ccc(C(=O)N(C)C)cc3)ccc2OC(F)F)n1 [Example 8, N-(3-(2-(difluoromethoxy)-5-(4-(dimethylcarbamoyl)phenoxy)phenyl)-1-(2-(dimethylamino)-2-oxoethyl)-1H-pyrazol-4-yl)pyrazolo[1,5-a]pyrimidine-3-carboxamide]	0.83 nM	–	1.81 nM	43.9 nM
CN(C)C(=O)Cn1cc(NC(=O)c2cnn3cccnc23)c(-c2cc(CCF)ccc2OC(F)F)n1 [Example 9, N-(3-(2-(difluoromethoxy)-5-(2-fluoroethyl)phenyl)-1-(2-(dimethylamino)-2-oxoethyl)-1H-pyrazol-4-yl)pyrazolo[1,5-a]pyrimidine-3-carboxamide]	0.97 nM	–	1.92 nM	269 nM
CN(C)C(=O)Cn1cc(NC(=O)c2cnn3cccnc23)c(-c2cc(Oc3ccc4c(c3)CNCC4)ccc2OC(F)F)n1 [Example 12, N-(3-(2-(difluoromethoxy)-5-((1,2,3,4-tetrahydroisoquinolin-7-yl)oxy)phenyl)-1-(2-(dimethylamino)-2-oxoethyl)-1H-pyrazol-4-yl)pyrazolo[1,5-a]pyrimidine-3-carboxamide]	0.27 nM	–	0.75 nM	29.8 nM
C=Cc1ccc(OC(F)F)c(-c2nn(CC(=O)N(C)C)cc2NC(=O)c2cnn3cccnc23)c1 [Example 13, N-(3-(2-(difluoromethoxy)-5-vinylphenyl)-1-(2-(dimethylamino)-2-oxoethyl)-1H-pyrazol-4-yl)pyrazolo[1,5-a]pyrimidine-3-carboxamide]	0.51 nM	–	1.17 nM	24.1 nM
CN(C)C(=O)Cn1cc(NC(=O)c2cnn3cccnc23)c(-c2cc(C3CC3)ccc2OC(F)F)n1 [Example 14, N-(3-(5-cyclopropyl-2-(difluoromethoxy)phenyl)-1-(2-(dimethylamino)-2-oxoethyl)-1H-pyrazol-4-yl)pyrazolo[1,5-a]pyrimidine-3-carboxamide]	0.8 nM	–	1.99 nM	47.3 nM
CN(C)C(=O)Cn1cc(NC(=O)c2cnn3cccnc23)c(-c2cc(Br)ccc2OC(F)F)n1 [Example 15, N-(3-(5-bromo-2-(difluoromethoxy)phenyl)-1-(2-(dimethylamino)-2-oxoethyl)-1H-pyrazol-4-yl)pyrazolo[1,5-a]pyrimidine-3-carboxamide]	0.32 nM	–	0.43 nM	14.3 nM
CN(C)C(=O)Cn1cc(NC(=O)c2cnn3cccnc23)c(-c2cc(Cl)ccc2OC(F)F)n1 [Example 16, N-(3-(5-chloro-2-(difluoromethoxy)phenyl)-1-(2-(dimethylamino)-2-oxoethyl)-1H-pyrazol-4-yl)pyrazolo[1,5-a]pyrimidine-3-carboxamide]	0.65 nM	–	1.02 nM	33.4 nM
CN(C)C(=O)Cn1cc(NC(=O)c2cnn3cccnc23)c(-c2cc(OC(F)F)ccc2OC(F)F)n1 [Example 17, N-(3-(2,5-bis(difluoromethoxy)phenyl)-1-(2-(dimethylamino)-2-oxoethyl)-1H-pyrazol-4-yl)pyrazolo[1,5-a]pyrimidine-3-carboxamide]	0.26 nM	–	0.72 nM	14.1 nM
CN1CC(O)(c2cccc(Oc3ccc(OC(F)F)c(-c4nn(CC(=O)N(C)C)cc4NC(=O)c4cnn5cccnc45)c3)c2)C1 [Example 18, N-(3-(2-(difluoromethoxy)-5-(3-(3-hydroxy-1-methylazetidin-3-yl)phenoxy)phenyl)-1-(2-(dimethylamino)-2-oxoethyl)-1H-pyrazol-4-yl)pyrazolo[1,5-a]pyrimidine-3-carboxamide]	3.18 nM	–	1.56 nM	285 nM
